Molecules are shown by their SMILES.

Results on 88 compounds are retold here after a melting point compilation (Tetko et al.; mined from patent text by program, amines drawn as free bases though some values may be those of a salt).

One may read the melting point as the temperature, or range, at which the solid turns liquid. In the case of `Cc1c(F)c(N2CCNCC2)cc2c1c(=O)c(C(=O)O)cn2-c1ccc(F)cc1F`, the melting point lay within 198 to 200 °C.

For `CCc1onc(-c2ccccc2)c1-c1ccccc1`, the melting point was in the range of 85 to 87 °C.

With `Cc1c(C=CCN)[nH]c(=O)c2c1ccc1nc(Nc3c(Cl)cccc3Cl)n(C)c12`, the melting point is above 300 °C.

On to `CCOP(=O)(OCC)Oc1cc(C(C)C)c(NC(=O)CN2CCN(CCSc3nc4ccccc4o3)CC2)c(C(C)C)c1`, for which the melting point is 108 to 109 °C.

Compound `CCNc1nc2n(n1)CCc1ccccc1-2` displayed a melting point of 100 to 101 °C.

The compound `OCC1OC(n2cnc3c(NCc4cccc(I)c4)ncnc32)C(O)C1O` (stereo not drawn) came in with a melting point of 172 °C.

As for `COCn1c(-c2nc3c(OC)ccc(N4CCOCC4)c3s2)nc2ccc(Cl)nc21`, the melting point was in the range of 167 to 170 °C.

For the compound `O=C1NC(=S)NC(=O)C1=Cc1cc(Br)cs1`, the melting point is 230 °C.

With `CCc1c(NC(=O)c2cc3c(s2)CCCC3)cccc1-c1cc(N)c(=O)n(C)c1`, the melting point lay within 210 to 211 °C.

Regarding `Cc1ccc(S(=O)(=O)NCCCCOc2ccc(-n3cnnn3)cc2)cc1`, the melting point fell in the range of 127 to 128 °C.

For `Cc1c(N2CCC3(CC3N)C2)c(F)c(N)c2c(=O)c(C(=O)O)cn([C@@H]3C[C@@H]3F)c12` (stereo partly drawn), the melting point fell in the range of 118 to 120 °C.

The compound `CC(C)(C)OC(=O)N[C@H]1CCc2cc(-c3ccccc3)ccc2NC1=O` came in with a melting point of 198 to 200 °C.

Compound `COc1cc2c(cc1Br)CC=C2CCNC(=O)C(F)(F)F` returned a melting point of 126 to 129 °C.

In turn, `CCCCCCCCCCCCCCCCCCOC(=O)CCc1cc(C)c(O)c(C(C)(C)C)c1` came in with a melting point of 58 to 59 °C.

With `CCOC(=O)C1CNC(=O)CC1c1ccc(F)cc1` (stereo not drawn), the melting point was 116 to 120 °C.

`COC(=O)COc1cc(C(C)C)c(SC#N)cc1C`: the melting point fell in the range of 67 to 69 °C.

`CC(=O)NC(=O)CCCCBr` yielded a melting point of 88 to 90 °C.

As to `CNc1nc(-c2cccc(NC(=O)c3ccc(OC)c(OC)c3)c2)c2cc(OC)c(OC)cc2n1`, the melting point lay within 128 to 130 °C.

In turn, `CCCCCC1=C(CCCCC)CC(CNC(=O)Nc2c(C(C)C)cccc2C(C)C)SC1` (stereo not drawn) registered a melting point of 65 to 67 °C.

`CNc1c([N+](=O)[O-])ccc(Cl)c1Cl`: the melting point turned out to be 82 °C.

As for `Cn1cccc1-c1cc(OC(F)F)n(-c2ccc(NC(=O)c3ccncc3F)cc2)n1`, the melting point was in the range of 154 to 155 °C.

In turn, `CCCCCCCCCCCCSC(C)(C)C=NNC(=O)CCc1cc(C(C)(C)C)c(O)c(C(C)(C)C)c1` showed a melting point of 53 to 57 °C.

As for `CC(C)COc1c(-c2ccc(S(N)(=O)=O)c(F)c2)cnn(CC(F)(F)F)c1=O`, the melting point is 163 to 164 °C.

The compound `Cc1ccccc1C(=O)c1ccc(Nc2ccccc2NC(=O)CO)cc1F` showed a melting point of 149 to 150 °C.

Compound `CNC(=O)n1nc(Oc2ncc(C(F)(F)F)cc2Cl)c(Cl)c1C` registered a melting point of 81 to 83 °C.

`O=C(NCCCl)Nc1ccc(CCCc2ccccc2OCc2ccccc2)cc1` had a melting point of 120 to 121 °C.

`COC(=O)c1ccc(OC(=O)c2cc(C)c3c(c2C)C2(CCS3(=O)=O)OCCO2)cc1` registered a melting point of 206 to 208 °C.

With `CC(C)S(=O)(=O)NCC(C)(F)c1ccc(-c2cccc3c2CC(=O)N3)cc1` (stereo not drawn), the melting point is 86 to 87 °C.

On to `Cc1c([N+](=O)[O-])ccc(OCc2ccccc2)c1Cl`, for which the melting point lay within 73 to 74.5 °C.

`N#CSc1cc(Cl)c(Cl)c2sc(NC(=O)Nc3ccc(Cl)cc3)nc12` came in with a melting point of 238 to 239 °C.

For the compound `CC(=O)Nc1c(C(=O)c2cccc(C(N)=O)c2)[nH]c2cc(Cl)ccc12`, the melting point was 243 to 247 °C.

Regarding `CC(C)c1nc(-c2ccccc2)n(-c2ccc(F)cc2)c1C=C(Br)Br`, the melting point fell in the range of 164 to 165 °C.

`Cc1csc2ncc(C(O)CCCCc3ccccc3)n12` (stereo not drawn) returned a melting point of 120 to 121 °C.

Consider `CCNC(=O)Nc1cc(F)cc2c1OCCC21SC(=O)NC1=O` (stereo not drawn), for which the melting point lay within 197 to 199 °C.

`CC(C)(C)OC(=O)c1ccc(OCCNC(=O)C2Cc3ccccc3N2S(=O)(=O)c2ccc(-c3ccc(F)cc3F)cc2)cc1` (stereo not drawn) registered a melting point of 80 °C.

Take `COC(=O)C1(NC(C)=O)CCc2cc(OC)ccc2C1` (stereo not drawn): the melting point was in the range of 153 to 154 °C.

`COC(=O)c1cc2c(cc1N)OCCO2` had a melting point of 73 to 77 °C.

On to `NC(c1ccnc2cc(Cl)ccc12)C1CCCC(CNc2ccnc3cc(Cl)ccc23)C1` (stereo not drawn), for which the melting point was in the range of 92 to 95 °C.

With `CC(C)N1Cc2cc(O)ccc2N(CCN2CC=C(c3c[nH]c4cc(F)ccc34)CC2)S1(=O)=O`, the melting point lay in the range of 80 to 82 °C.

With `C[C@H](Nc1c(-c2c(F)cc(F)cc2F)c(Br)nc2ncnn12)C(F)(F)F`, the melting point is 95 to 97 °C.

In turn, `CN(CCCNc1ncc(Cc2ccccc2Cl)c(=O)[nH]1)c1ccccn1` displayed a melting point of 47 to 49 °C.

Consider `O=C(c1ccc(O)cc1O)c1ccccc1F`, for which the melting point lay within 109 to 111 °C.

Consider `CCOC(=O)C(Oc1cccc2c1ccn2C(=O)OCc1ccccc1)C(=O)OCC`, for which the melting point fell in the range of 77 to 78 °C.

In turn, `CCC1CC2C3CCC4=CC(=O)CCC4(CSC)C3CCC2(C)C1=O` (stereo not drawn) showed a melting point of 83 °C.

On to `CS(=O)(=O)c1ccc(-n2cnc(Cl)c2-c2ccc(OC(F)(F)F)cc2)cc1`, for which the melting point lay within 136 to 138 °C.

`CCCCC(=O)N(Cc1ccc(OC(F)(F)F)cc1)c1cc(Cl)cc(-c2nnn[nH]2)c1`: the melting point fell in the range of 177 to 180 °C.

Take `O=C(O)COc1cscc1Cl`: the melting point was determined as 123 °C.

`N#CCC(O)(Cn1cncn1)c1ccc(F)cc1F` (stereo not drawn) gave a melting point of 154 to 155 °C.

The compound `O=C(CNc1c(C(=O)O)[nH]c2cc(Cl)cc(Cl)c12)c1ccc([N+](=O)[O-])cc1` gave a melting point of 270 to 272 °C.

As for `Cc1c(NC(=O)N2CC[C@H](O[Si](C)(C)C(C)(C)C)[C@H]2CO)ccc(C#N)c1Cl`, the melting point is 174 to 176 °C.

`C[C@@H]1N=C(c2ccccc2F)c2c(ccc(N)c2Cl)N(C)C1=O`: the melting point fell in the range of 222 to 226 °C.

As to `O=c1ccc(=O)c2c(=O)c3ccccc3c(=O)c1=2`, the melting point was 211 to 213 °C.

For `CC(=O)OCc1nc2nc(O)cnc2c(=O)[nH]1`, the melting point is above 300 °C.

The compound `COc1ccc(COC(=O)NCCc2c[nH]c3ccc(F)cc23)cc1` yielded a melting point of 118 to 119 °C.

Compound `COC(=O)c1ccc(C(=O)c2ccc3c(c2)C2(C)C4(C)CCC(C4)C2(C)O3)cc1` (stereo not drawn) displayed a melting point of 150 °C.

Compound `Cc1ccc(C(=O)Nc2cc(-n3cncc3C)cc(C(F)(F)F)c2)cc1Nc1nccc(-c2cccnc2)n1` gave a melting point of 231 to 233 °C.

For `Clc1cccc(-c2nc3ccccc3n2-c2ccccc2)c1`, the melting point fell in the range of 107 to 109 °C.

For `Nc1c(NCCCO)cccc1OCc1ccccc1`, the melting point lay in the range of 82 to 83 °C.

Turning to `N[C@@H](Cc1c[nH]cn1)C(=O)N(N)C(=O)C(CC(=O)N1CCOCC1)Cc1cccc2ccccc12` (stereo partly drawn), the melting point is 115 to 119 °C.

Compound `CCON(C(=O)c1cn(C)nc1C(F)F)C(C)Cc1c(Cl)cc(Cl)cc1Cl` (stereo not drawn) had a melting point of 111 to 114 °C.

`Nc1ncc(C#Cc2ccc(Cl)cc2)c(NCCOCCO)n1` registered a melting point of 176 to 180 °C.

Compound `Nc1[nH]ncc1-c1cccc(N2CCOCC2)c1` gave a melting point of 166 to 168 °C.

Consider `COC(=O)c1ccc2c(c1)CN(c1c(F)cc3c(=O)c(C(=O)O)cn(-c4ccc(F)cc4F)c3c1F)C2`, for which the melting point was 248 to 251 °C.

`O=C(Nc1nc2cnccc2s1)N1CCCC1` had a melting point of 218 to 220 °C.

Compound `COc1ccc(-c2ccc(S(=O)(=O)NCc3ccccn3)nc2)cc1` yielded a melting point of 150 °C.

The compound `O=C(Nc1ccc2cc(CN3CCCC3)cnc2c1)c1ccc(-c2ccccc2)nc1` had a melting point of 208 to 210 °C.

In turn, `COc1cc(C(C)=O)cc(OC)c1O[Si](C)(C)C(C)(C)C` gave a melting point of 90 to 92 °C.

`NS(=O)(=O)c1ccc(C2CCNCC2)cc1`: the melting point is 229 to 230 °C.

For `CC1(C)SC(c2cccnc2)NC1C(=O)O` (stereo not drawn), the melting point was 164 to 165 °C.

`CN(c1cccc2cc(-c3ncc(CCC(=O)NN)s3)[nH]c12)S(=O)(=O)c1cccs1` showed a melting point of 224 to 226 °C.

In turn, `COc1ccc(S(=O)(=O)Nc2cccnc2Nc2cccc(OC)c2)cc1` returned a melting point of 161 to 162 °C.

As for `COc1ccc(Sc2cnnc3ccccc23)cc1`, the melting point stood at 163 °C.

The compound `Cc1cc(O)c2c(c1)C(C)(C)CCC2(C)C` registered a melting point of 133 to 134 °C.

For the compound `Cc1nc(-c2ccc(C#N)cc2)sc1C(=O)N[C@H](C)[C@](O)(Cn1ccnc1)c1ccc(F)cc1F`, the melting point was 126 to 128 °C.

On to `Cc1cc(-c2c[nH]cc2C#N)c(Cl)cc1F`, for which the melting point is 132 to 133 °C.

As to `N#CCCCN1CC=C(c2ccccc2)CC1`, the melting point was 57 to 59 °C.

The compound `COc1ccc2c(c1)C(=C1CCN(Cc3ccccc3)CC1)C(=O)N2` yielded a melting point of 152 °C.

`CC1(CN2CCN(c3nc4ccccc4o3)CC2)Cn2cc([N+](=O)[O-])nc2O1` (stereo not drawn) yielded a melting point of 228 to 230 °C.

Regarding `CCCc1cc(-c2nc3c(s2)CCCO3)ccc1O`, the melting point fell in the range of 152 to 154 °C.

For `C=CCOC(=O)C1=C(C)NC(C)=C(C(=O)OC)C1c1cccc([N+](=O)[O-])c1` (single isomer, unassigned; (-)), the melting point was 215 to 217 °C.

As for `CC(C)OCc1nc(C(C)(C)O)c(C(=O)OC(C)C)[nH]1`, the melting point fell in the range of 154 to 155 °C.

For `CCOc1cc(CN2CCc3cc(O)ccc3C2)cc(OCC)c1OCC`, the melting point lay in the range of 140 to 142 °C.

For the compound `N#Cc1cccc(-n2ccc3ccccc32)c1`, the melting point was 33 to 36 °C.

For `O=C(NC=CC1OC1CCCNC(=O)c1ccc(OC(F)(F)F)cc1)c1ccc(OC(F)(F)F)cc1` (stereo not drawn), the melting point lay within 121 to 123 °C.

`COc1ccc(NC(=O)C#Cc2ccc(CN3CCCCC3)cc2)cc1` had a melting point of 170 °C.

Take `CNc1c(F)cc2c(=O)c(C(=O)O)cn(-c3ccc(F)c(O)c3)c2c1Cl`: the melting point is above 280 °C.

For `CCCCc1nc2c(N)nc3ccc(OCc4ccccc4)cc3c2n1CCCCNC(=O)Nc1ccccc1`, the melting point fell in the range of 190 to 194 °C.

As to `Cc1ccc(-c2ccc3c(c2)C=C(CNc2ccc(CN(C)C4CCOCC4)cc2)CCO3)cc1`, the melting point fell in the range of 158 to 160 °C.
